In paper PMC6717215, “Chemical characterization and biological activity data for a novel indirubin derivative, LDD-1819” (Data in Brief, 2019):
Counter-ions that a name gives are not always drawn.

Key:
[1] = target: T1, glycogen synthase kinase-3 β (GSK-3β) (Homo sapiens, UniProt P49841); experiment: Z′-LYTE FRET peptide biochemical kinase assay, ATP at Km, concentration-dependent
T1 construct: gene GSK3B

[2] = target: T2, aurora kinase A (Homo sapiens, UniProt O14965); experiment: as above
T2 construct: gene AURKA
T2 sequence (O14965 1-403): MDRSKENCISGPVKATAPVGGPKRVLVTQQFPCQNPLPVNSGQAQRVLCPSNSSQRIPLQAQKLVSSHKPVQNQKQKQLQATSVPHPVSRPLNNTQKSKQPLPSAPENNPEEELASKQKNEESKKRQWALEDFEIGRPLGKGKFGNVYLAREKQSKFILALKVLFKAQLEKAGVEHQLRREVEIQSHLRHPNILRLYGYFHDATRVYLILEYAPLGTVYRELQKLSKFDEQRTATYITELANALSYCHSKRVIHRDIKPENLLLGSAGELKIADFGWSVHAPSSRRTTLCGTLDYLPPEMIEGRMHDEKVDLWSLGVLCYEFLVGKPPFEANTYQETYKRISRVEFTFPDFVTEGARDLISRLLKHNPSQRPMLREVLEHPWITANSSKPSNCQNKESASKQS

T1 sequence (P49841 whole entry): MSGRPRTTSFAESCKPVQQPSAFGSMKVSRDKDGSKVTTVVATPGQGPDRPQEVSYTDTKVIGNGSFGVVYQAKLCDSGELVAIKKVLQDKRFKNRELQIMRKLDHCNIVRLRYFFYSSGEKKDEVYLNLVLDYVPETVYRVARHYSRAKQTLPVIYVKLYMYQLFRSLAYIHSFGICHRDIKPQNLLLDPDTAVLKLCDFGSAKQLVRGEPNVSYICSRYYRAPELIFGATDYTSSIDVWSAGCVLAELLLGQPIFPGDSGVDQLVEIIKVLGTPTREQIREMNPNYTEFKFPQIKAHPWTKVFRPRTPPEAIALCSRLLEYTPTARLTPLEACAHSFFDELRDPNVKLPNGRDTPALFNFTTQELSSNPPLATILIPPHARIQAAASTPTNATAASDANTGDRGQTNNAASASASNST

NCCO/N=C1/C(=C2/C(=O)Nc3ccc([N+](=O)[O-])cc32)Nc2ccc(O)cc21 [LDD-1819, (2Z,3E)-3-((2-aminoethoxy)imino)-5-hydroxy-5′-nitro-[2,3′-biindolinylidene]-2′-one hydrochloride]
IC50 [1]: 5.46 nM | IC50 [2]: 222 nM
